In experiment [1] the target is SARS-CoV-2 Main Protease (SARS-CoV-2) (UniProt P0DTD1).
Method: Compounds were seeded into assay-ready plates (Greiner 384 low volume, cat 784900) using an Echo 555 acoustic dispenser, and DMSO was back-filled for a uniform concentration in assay plates (DMSO concentration maximum 1%) Screening assays were performed in duplicate at 20µM and 50µM. […] Dose response assays were performed in 12 point dilutions of 2-fold, typically beginning at 100µM. […] Reagents for Mpro assay were dispensed into the assay plate in 10µl volumes for a final volume of 20µL.
Mpro was pre-incubated for 15 minutes at room temperature with compound before addition of substrate and a further 30 minute incubation. Protease reaction was measured in a BMG Pherastar FS with a 480/520 ex/em filter set. Raw data was mapped and normalized to high (Protease with DMSO) and low (No Protease) controls using Genedata Screener software.
The target is the same in experiment [2]. This is another data set of the same source.

The inhibition is the change of the read-out against control, counted positive when it falls. In general, IC50 refers to the concentration that gives 50% inhibition.

Regarding `CC(=O)Oc1ccccc1C(=O)Nc1ncc([N+](=O)[O-])s1`, the values for the inhibition in experiment [1] (50.0 µM) and in experiment [2] (50.0 µM) were -8.72% and 0%, respectively.
For `N#C/C(C(=O)Nc1ccc(F)cc1)=C(/O)c1ccc(Cl)cc1`, the inhibition came to 22.2% in experiment [1] (50.0 µM) and 100% in experiment [2] (50.0 µM). In addition, in experiment [2], the IC50 was found to be 234 nM.
Take `Cc1nc(N)sc1CN1CCN(Cc2cccc(Cl)c2)C1=O`: the values for the inhibition in experiment [1] (20.0 µM), in experiment [1] (50.0 µM) and in experiment [2] (50.0 µM) were 5.38%, 35.6% and 0%, respectively.
For `Cc1cccc(C)c1NC(=O)CN1C(=O)C(=O)c2ccccc21` the same measures were -5.56%, -2.09% and 0%.
Take `C=CC(=O)N(c1ccc(C(F)(F)F)cc1)C(C(=O)Nc1ccc(OC)cc1)c1cccnc1` (configuration not stated): the inhibition in experiment [1] (20.0 µM) came to 40.3%; in experiment [1] (50.0 µM) it was 60.7%; in experiment [2] (20.0 µM), 60%.
For the compound `CCOC(=O)c1cc(-c2ccccc2)sc1NC(=O)Cc1csc(-c2ccccc2)n1`, the inhibition in experiment [1] (20.0 µM) stood at 91.8%; in experiment [1] (50.0 µM), 97.9%. The same compound registered an IC50 in experiment [2] of 2690 nM.
Turning to `CN1CCN(C(=O)Cc2c[nH]c3ncc(C(=O)NCCc4c[nH]c5ccc(F)cc45)cc23)CC1`, the inhibition was -1.5% in experiment [1] (20.0 µM), 7.57% in experiment [1] (50.0 µM) and 8.74% in experiment [2] (50.0 µM).
For `Cc1ccc(S(=O)(=O)N2CCC(NC(=O)N(C)Cc3cc(C)on3)CC2)cc1`, the figures for the inhibition in experiment [1] (20.0 µM), in experiment [1] (50.0 µM) and in experiment [2] (50.0 µM) were -1.1%, 2.6% and 0%, respectively.
`CS(=O)(=O)N1CCc2ccc(CN3CCN(C(=O)CCl)CC3)cc2C1`: the inhibition in experiment [1] (20.0 µM) was 29.9%; in experiment [1] (50.0 µM), 62.5%; in experiment [2] (50.0 µM) it was 71.8%. For the same compound, the IC50 in experiment [2] came out at 38400 nM.
For `O=C(Cc1cc(Cl)cc(OC2CC(=O)N2)c1)Nc1cncc2ccccc12` (configuration not stated), the IC50 in experiment [1] came out at 203 nM; in experiment [2], 157 nM.
Regarding `O=C(Oc1cncc(Cl)c1)c1cccc2[nH]ccc12`, the inhibition was 99.8% in experiment [1] (20.0 µM), 100% in experiment [1] (50.0 µM) and 100% in experiment [2] (50.0 µM).
Turning to `Cc1cccc(NC(=O)CN2C(=O)C(=O)c3ccccc32)c1`, the inhibition in experiment [1] (20.0 µM) was -4.74%; in experiment [1] (50.0 µM), -1.42%; in experiment [2] (50.0 µM), 53.7%. Moreover, in experiment [2], the IC50 worked out at 42400 nM.
Take `O=C(CCl)N1CCN(Cc2cnc(-c3ccccc3)nc2)CC1`: the inhibition in experiment [1] (20.0 µM) is 6.18%; in experiment [1] (50.0 µM) it was 15.7%; in experiment [2] (50.0 µM) it was 0%.
`CC(C)c1nc(CN(C)C(=O)N[C@H](C(=O)N[C@@H](Cc2ccccc2)C[C@H](O)[C@H](Cc2ccccc2)NC(=O)OCc2cncs2)C(C)C)cs1` (stereo in doubt): the inhibition in experiment [1] (20.0 µM) was 2.31%; in experiment [1] (50.0 µM) it was 6.72%; in experiment [2] (20.0 µM) it was 0%.
With `O=c1oc(Nc2ccccc2)nc2ccccc12`, the inhibition was found to be 68.6% in experiment [1] (20.0 µM) and 90.4% in experiment [1] (50.0 µM). In addition, the IC50 in experiment [2] came out at 363 nM.
For the compound `Nc1ncc(S(=O)(=O)c2ccc(Cl)cc2)c(N)n1`, the inhibition in experiment [1] (50.0 µM) was -22.1%; in experiment [2] (50.0 µM) it was 0%.
On to `N#Cc1cccc(CN2C(=O)C(=O)c3cccc(Br)c32)c1`, for which the inhibition was -5.42% in experiment [1] (20.0 µM), -2.38% in experiment [1] (50.0 µM) and 91.2% in experiment [2] (50.0 µM). This compound also had an IC50 in experiment [2] of 17 nM.
Taken in the same sequence, the figures for `Cc1cc(C)nc(NC2CCN(C(=O)CCl)CC2)n1` were 46.1%, 81.5%, 100% and 19500 nM.
`O=C(NCCN1CCN(C(=O)CCl)CC1)c1cccc2ccccc12`: the inhibition in experiment [1] (20.0 µM) worked out at 6.97%; in experiment [1] (50.0 µM), 4.69%; in experiment [2] (50.0 µM) it was 23.8%.
Taken in the same sequence, the figures for `C=CC(=O)N1CCN(Cc2ccc(F)cc2)CC1` were 7.92%, 11.4% and 0%.
With `CCOC(=O)c1c(C)n(S(C)(=O)=O)c2ccc(N(C(=O)c3ccco3)S(C)(=O)=O)cc12`, the inhibition in experiment [1] (20.0 µM) stood at 67.5%; in experiment [1] (50.0 µM), 98.6%. Further, the IC50 in experiment [2] was 147 nM.
Take `CC(C)Cn1cc(NC(=O)NC2=NN(c3ccccc3)CC2)c2ccccc2c1=O`: the values for the inhibition in experiment [1] (20.0 µM), in experiment [1] (50.0 µM) and in experiment [2] (50.0 µM) were 1.37%, 5.45% and -5.97%, respectively.

The values are drawn from the COVID Moonshot data (paper PMC11187573), “Identification of SARS-CoV-2 Mpro inhibitors through deep reinforcement learning for de novo drug design and computational chemistry approaches” (RSC Medicinal Chemistry, 2024).
